We go through six compounds from ChEMBL document CHEMBL1201862, “PubChem BioAssay data set” (2004).

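Method: 48-hour compound exposure of cells in 96-well plates, five concentrations, linear interpolation of endpoints. Abbreviation: GI50, concentration required for 50% inhibition of growth.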 Active and inactive are the calls of the source. No stated cut-off is given here; in the data, active = GI50 up to about 1.1 µM and inactive = higher.

What is called GI50 is the concentration that inhibits growth by half.

Test systems include RPMI-8226; HOP-62; EKVX; SNB-19; OVCAR-8; SN12C; SK-OV-3; UACC-62; HT-29; Malme-3M; HCT-15; UO-31; SW-620; SF-539; LOX IMVI; CAKI-1; K562; OVCAR-4; COLO 205; IGROV-1.
Holding throughout (assay): DTP human tumour cell line panel, 48 h

`N#Cc1c(NC(=S)NC(=O)c2ccccc2)nc2c(c1-c1ccccc1)CCC2`: the GI50 is > 100 µM (inactive) with RPMI-8226; > 100 µM (inactive) in the assay with HOP-62; 24.5 µM (inactive) with EKVX; > 100 µM (inactive) in the assay with SNB-19; 67 µM (inactive) in the assay with OVCAR-8; 78.2 µM (inactive) with SN12C. The GI50 in the assay with SK-OV-3 is > 100 µM (inactive); in the assay on UACC-62 it was > 100 µM (inactive); in the assay with HT-29, > 100 µM (inactive); with Malme-3M, 78.7 µM (inactive); with HCT-15 it was greater than 100 µM; in the assay on UO-31, 8.67 µM (inactive). The GI50 in the assay on SW-620, with SF-539, in the assay on LOX IMVI, with CAKI-1, with K562 and in the assay on OVCAR-4 was > 100 µM (inactive) in each case. The GI50 with COLO 205 and in the assay with IGROV-1 was > 100 µM (inactive) in each case.
With `Cc1cc(C)c2c(O)cc(-c3ccc(F)cc3)nc2n1`, the GI50 in the assay on RPMI-8226 was 24.8 µM (inactive); in the assay with HOP-62 it was > 100 µM (inactive); in the assay with EKVX, 48.5 µM (inactive); in the assay on SNB-19 it was > 100 µM (inactive); in the assay on OVCAR-8, 76.7 µM (inactive); with SN12C, 50.7 µM (inactive). The GI50 was 87.9 µM (inactive) in the assay on SK-OV-3; 33.7 µM (inactive) in the assay on UACC-62; 39.2 µM (inactive) with HT-29; 42.9 µM (inactive) with Malme-3M; 47.1 µM with HCT-15; 23.9 µM (inactive) with UO-31. For the same compound, the GI50 in the assay on SW-620 is 34.4 µM (inactive); in the assay with SF-539 it was > 100 µM (inactive); in the assay with LOX IMVI it was 45.6 µM (inactive); with CAKI-1, 33.6 µM (inactive); in the assay on K562, 32.1 µM (inactive); with OVCAR-4 it was 17.6 µM (inactive). Moreover, the GI50 is 32.1 µM (inactive) with COLO 205 and 32.4 µM (inactive) in the assay with IGROV-1.
With `CC(=O)OCC1=C(C(=O)O)C(c2ccc3c(c2)OCO3)c2cc3c(cc2O1)OCO3` (stereo not given), the GI50 in the assay with RPMI-8226, in the assay on HOP-62, in the assay with EKVX, in the assay with SNB-19, with OVCAR-8 and in the assay on SN12C was > 100 µM (inactive) throughout. Moreover, the GI50 with SK-OV-3 is > 100 µM (inactive); with UACC-62, > 100 µM (inactive); in the assay with HT-29, > 100 µM (inactive); in the assay with Malme-3M, > 100 µM (inactive); with HCT-15, greater than 100 µM; in the assay on UO-31 it was > 100 µM (inactive). Further, the GI50 with SW-620, in the assay with SF-539, with LOX IMVI, in the assay with CAKI-1, in the assay on K562 and in the assay with OVCAR-4 was > 100 µM (inactive) throughout. In addition, the GI50 with COLO 205 and with IGROV-1 was > 100 µM (inactive) in each case.
Turning to `Cc1ccc(C2C(C(=O)C(C)(C)C)N2S(=O)(=O)c2ccc(C)cc2)cc1` (stereo not given), the GI50 in the assay on RPMI-8226 is 18.9 µM (inactive); with HOP-62 it was 33.5 µM (inactive); in the assay on EKVX, 15.7 µM (inactive); in the assay on SNB-19, 22.5 µM (inactive); with OVCAR-8, 21.3 µM (inactive); in the assay with SN12C, 19.8 µM (inactive). For the same compound, the GI50 with SK-OV-3 was > 100 µM (inactive); in the assay on UACC-62 it was 15.8 µM (inactive); in the assay with HT-29 it was 24.3 µM (inactive); in the assay with Malme-3M it was 23.2 µM (inactive); in the assay on HCT-15, 22.3 µM; in the assay on UO-31, 18.4 µM (inactive). In addition, the GI50 was 26.8 µM (inactive) in the assay with SW-620; 14.9 µM (inactive) with SF-539; 22.4 µM (inactive) in the assay with LOX IMVI; 26.4 µM (inactive) in the assay with CAKI-1; 25.3 µM (inactive) with K562; 30.1 µM (inactive) in the assay on OVCAR-4. In addition, the GI50 in the assay on COLO 205 was 19.5 µM (inactive); in the assay on IGROV-1 it was 17.5 µM (inactive).
`Cc1ccc(C(C)(C)C[P+](C)(c2ccccc2)c2ccccc2)cc1`: the GI50 in the assay with RPMI-8226 was 1.41 µM (inactive); with HOP-62, 18.4 µM (inactive); in the assay on EKVX, 38.5 µM (inactive); with SNB-19 it was 12 µM (inactive); in the assay on OVCAR-8 it was 12.7 µM (inactive); in the assay with SN12C it was 20.4 µM (inactive). The GI50 with SK-OV-3 was 22.1 µM (inactive); in the assay on UACC-62, 5.38 µM (inactive); in the assay on HT-29 it was 4.46 µM (inactive); with Malme-3M it was 4.18 µM (inactive); in the assay with HCT-15, 99.3 µM; in the assay with UO-31 it was 20.8 µM (inactive). Further, the GI50 in the assay on SW-620 is 17.4 µM (inactive); in the assay on SF-539 it was 28 µM (inactive); with LOX IMVI it was 7.76 µM (inactive); with CAKI-1, 23.9 µM (inactive); with K562, 5 µM (inactive); in the assay on OVCAR-4, 9.18 µM (inactive). In addition, the GI50 was 4.42 µM (inactive) in the assay on COLO 205 and 5.28 µM (inactive) in the assay with IGROV-1.
Consider `COc1ccc(C[C@H](N)C(=O)N2C[C@@H](CO)C[C@@H](n3ccc(=O)[nH]c3=O)C2)cc1`, for which the GI50 in the assay on RPMI-8226, with HOP-62, in the assay on EKVX, in the assay with SNB-19, with OVCAR-8 and in the assay with SN12C was > 100 µM (inactive) throughout. Also, the GI50 with SK-OV-3 was > 100 µM (inactive); in the assay on UACC-62, > 100 µM (inactive); with HT-29 it was > 100 µM (inactive); with Malme-3M, > 100 µM (inactive); with HCT-15 it was greater than 100 µM; in the assay on UO-31 it was > 100 µM (inactive). The GI50 with SW-620, in the assay on SF-539, in the assay on LOX IMVI, with CAKI-1, in the assay with K562 and in the assay on OVCAR-4 was > 100 µM (inactive) in each case. The GI50 with COLO 205 and in the assay on IGROV-1 was > 100 µM (inactive) throughout.
